The values below come from patent US20250129074A1, “CHIMERIC COMPOUND FOR TARGETED DEGRADATION OF ANDROGEN RECEPTOR PROTEIN, PREPARATION METHOD THEREFOR, AND MEDICAL USE THEREOF” (Jiangsu Hengrui Pharmaceuticals Co., Ltd., priority 2021, published 2025).

One experiment addresses T1, androgen receptor (AR) (Homo sapiens, UniProt P10275, T878A).
T1 construct: host or cells: LNCaP human prostate cancer cells
T1 sequence (P10275 1-920 T878A): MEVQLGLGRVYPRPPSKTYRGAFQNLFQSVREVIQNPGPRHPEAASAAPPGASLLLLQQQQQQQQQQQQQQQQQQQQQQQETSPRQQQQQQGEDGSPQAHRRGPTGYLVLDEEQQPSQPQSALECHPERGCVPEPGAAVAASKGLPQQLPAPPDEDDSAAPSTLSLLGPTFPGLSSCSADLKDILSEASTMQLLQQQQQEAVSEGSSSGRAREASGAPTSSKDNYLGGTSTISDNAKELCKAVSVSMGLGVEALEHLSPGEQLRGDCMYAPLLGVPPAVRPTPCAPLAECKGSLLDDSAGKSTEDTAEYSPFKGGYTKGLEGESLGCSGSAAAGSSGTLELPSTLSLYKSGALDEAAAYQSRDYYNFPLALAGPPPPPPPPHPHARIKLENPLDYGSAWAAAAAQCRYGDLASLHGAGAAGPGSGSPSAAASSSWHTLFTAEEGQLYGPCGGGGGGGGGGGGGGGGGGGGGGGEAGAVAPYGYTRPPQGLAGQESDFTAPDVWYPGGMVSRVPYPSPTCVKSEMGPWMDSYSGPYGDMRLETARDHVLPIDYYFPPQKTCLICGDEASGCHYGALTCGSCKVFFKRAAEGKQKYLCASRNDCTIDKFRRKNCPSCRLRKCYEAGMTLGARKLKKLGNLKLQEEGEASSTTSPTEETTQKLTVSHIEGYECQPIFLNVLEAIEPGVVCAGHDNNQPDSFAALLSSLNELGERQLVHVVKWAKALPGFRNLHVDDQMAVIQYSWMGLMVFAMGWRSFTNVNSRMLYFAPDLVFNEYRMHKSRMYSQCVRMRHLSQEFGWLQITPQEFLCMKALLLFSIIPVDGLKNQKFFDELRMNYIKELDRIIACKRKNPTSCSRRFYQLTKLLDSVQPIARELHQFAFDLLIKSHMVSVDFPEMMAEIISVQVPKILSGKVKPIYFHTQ
The experiment in a line: Degradation activity on androgen receptor in LNCaP cells (AR ELISA). It is filed as cell-based. The settings on record: for Dmax: read-out: Max (maximum AR degradation rate). Here is the method:
The plate was incubated in a 37° C., 5% CO2 cell incubator for three days. […] A blank control cell well containing 0.5% DMSO was set up. The plate was incubated in a 37° C., 5% CO2 cell incubator for 24 hours. […] The lysate was well mixed by pipetting up and down and then centrifuged at 4000 rpm at 4° C. for 10 minutes. […] The plate was sealed and incubated in a 37° C. incubator for 1 hour. […] The plate was sealed and then incubated in a 37° C. incubator for 30 minutes.

Another experiment deals with LNCaP cells. The experiment in a line: Inhibition of LNCaP proliferation (CellTiter-Glo). The format is cell-based. The settings on record: Homo sapiens, 144 h, 0.1 nM R1881, six days; for Emax: read-out: Max (maximum proliferation inhibition rate). Here is the method: The plate was incubated in a 37° C., 5% CO2 cell incubator for three days. […] A blank control cell well containing 0.5% DMSO and a cell-free vehicle control well were set up. The plate was incubated in a 37° C., 5% CO2 cell incubator for six days.

[1] abbreviates: 0.1 nM R1881, 24 hours, read-out: LNCaP DC50.
Setting [2] is: read-out: LNCaP DC50, 0.1 nM R1881, 24 hours.

Read-outs that look alike come from different tables or passages of the source.

For the molecule `Cc1c(N2CCC3(CCN(c4ccc(C(=O)N5CCC(CN6CCN(c7cccc(NC8CCC(=O)NC8=O)c7)CC6)CC5)cc4)CC3)C2)ccc(C#N)c1Cl` (racemic) [Example 38, (±)-2-Chloro-4-(8-(4-(4-((4-(3-((2,6-dioxopiperidin-3-yl)amino)phenyl)piperazin-1-yl)methyl)piperidine-1-carbonyl)phenyl)-2,8-diazaspiro[4.5]decan-2-yl)-3-methylbenzonitrile], on androgen receptor (AR) (setting [1]), the DC50 is 11.7 nM. Moreover, the Dmax at androgen receptor (AR) (0.1 nM R1881, 24 hours) was found to be 96%. For the same molecule, in the experiment on LNCaP cells, half-maximal inhibition (IC50) was put at 49 nM and the Emax was found to be 60%.

With `C[C@H]1CC2(CCN(c3ccc(C(=O)N4CCC(N5CCN(c6ccc(C(=O)NC7CCC(=O)NC7=O)c(F)c6)CC5)CC4)cc3)CC2)CN1c1ccc(C#N)c(Cl)c1` (stereo partly drawn) [Example 1, 4-(4-(1-(4-((S)-2-(3-Chloro-4-cyanophenyl)-3-methyl-2,8-diazaspiro[4.5]decan-8-yl)benzoyl)piperidin-4-yl)piperazin-1-yl)-N-(2,6-dioxopiperidin-3-yl)-2-fluorobenzamide], the Dmax on androgen receptor (AR) (0.1 nM R1881, 24 hours) came to 89%. For the same molecule, the DC50 at androgen receptor (AR) (setting [2]) was 10.6 nM. Also, in the experiment on LNCaP cells, inhibition was half-maximal at 183 nM (IC50) and the Emax stood at 63%.

Regarding `C[C@H]1CC2(CCN(c3ccc(C(=O)N4CCC(N5CCN(c6ccc(C(=O)NC7CCC(=O)NC7=O)nc6)CC5)CC4)cc3)CC2)CN1c1ccc(C#N)c(Cl)c1` (stereo partly drawn) [Example 2, 5-(4-(1-(4-((S)-2-(3-Chloro-4-cyanophenyl)-3-methyl-2,8-diazaspiro[4.5]decan-8-yl)benzoyl)piperidin-4-yl)piperazin-1-yl)-N-(2,6-dioxopiperidin-3-yl)picolinamide], on androgen receptor (AR) (0.1 nM R1881, 24 hours), the Dmax came out at 90%. Moreover, the DC50 at androgen receptor (AR) (setting [2]) was found to be 5.1 nM. Moreover, in the experiment with LNCaP cells, the IC50 was determined as 164 nM and the Emax turned out to be 62%.

Turning to `C[C@H]1CC2(CCN(c3ccc(C(=O)N4CCC(CN5CCN(c6ccc(C(=O)NC7CCC(=O)NC7=O)c(F)c6)CC5)CC4)cc3)CC2)CN1c1ccc(C#N)c(Cl)c1` (stereo partly drawn) [Example 3, 4-(4-((1-(4-((S)-2-(3-Chloro-4-cyanophenyl)-3-methyl-2,8-diazaspiro[4.5]decan-8-yl)benzoyl)piperidin-4-yl)methyl)piperazin-1-yl)-N-(2,6-dioxopiperidin-3-yl)-2-fluorobenzamide], at androgen receptor (AR) (setting [1]), the half-maximal degradation concentration (DC50) came out at 22.1 nM. In addition, at androgen receptor (AR) (0.1 nM R1881, 24 hours), the Dmax was 89%. Further, in the experiment with LNCaP cells, the half-inhibitory concentration (IC50) came out at 286 nM and the Emax stood at 60%.

For `C[C@H]1CC2(CCN(c3ccc(C(=O)N4CCC(CN5CCN(c6ccc(C(=O)NC7CCC(=O)NC7=O)nc6)CC5)CC4)cc3)CC2)CN1c1ccc(C#N)c(Cl)c1` (stereo partly drawn) [Example 4, 5-(4-((1-(4-((S)-2-(3-Chloro-4-cyanophenyl)-3-methyl-2,8-diazaspiro[4.5]decan-8-yl)benzoyl)piperidin-4-yl)methyl)piperazin-1-yl)-N-(2,6-dioxopiperidin-3-yl)picolinamide], the DC50 at androgen receptor (AR) (setting [1]) worked out at 20.2 nM. Further, the Dmax on androgen receptor (AR) (0.1 nM R1881, 24 hours) stood at 92%. Besides, in the experiment with LNCaP cells, it took 135 nM to reach half-maximal inhibition (IC50) and the Emax stood at 58%.

Consider `C[C@H]1CC2(CCN(C(=O)c3ccc(SC4CCN(C5CN(c6ccc(C(=O)NC7CCC(=O)NC7=O)c(F)c6)C5)CC4)nc3)CC2)CN1c1ccc(C#N)c(Cl)c1` (stereo partly drawn) [Example 5, 4-(3-(4-((5-((S)-2-(3-Chloro-4-cyanophenyl)-3-methyl-2,8-diazaspiro[4.5]decane-8-carbonyl)pyridin-2-yl)thio)piperidin-1-yl)azetidin-1-yl)-N-(2,6-dioxopiperidin-3-yl)-2-fluorobenzamide], for which, at androgen receptor (AR) (0.1 nM R1881, 24 hours), the Dmax is 86%. In addition, the DC50 on androgen receptor (AR) (setting [2]) was found to be 30.5 nM. In addition, in the experiment on LNCaP cells, half-maximal inhibition (IC50) was put at 189 nM and the Emax amounted to 72%.

Turning to `C[C@H]1CC2(CCN(c3ccc(C(=O)N4CCC(N5CCC(N6CCN(c7ccc(N8CCC(=O)NC8=O)cc7)CC6)CC5)CC4)cc3)CC2)CN1c1ccc(C#N)c(Cl)c1` [Example 6, (S)-2-Chloro-4-(8-(4-(4-(4-(4-(2,4-dioxotetrahydropyrimidin-1(2H)-yl)phenyl)piperazin-1-yl)-[1,4′-bipiperidine]-1′-carbonyl)phenyl)-3-methyl-2,8-diazaspiro[4.5]decan-2-yl)benzonitrile], the DC50 at androgen receptor (AR) (setting [1]) is 5.7 nM. Further, the Dmax at androgen receptor (AR) (0.1 nM R1881, 24 hours) was 86%. In the experiment on LNCaP cells, the 50% inhibitory concentration (IC50) was 24.6 nM and the Emax is 50%.

For the molecule `C[C@H]1CC2(CCN(c3ccc(C(=O)N4CCC(N5CC(N6CCN(c7ccc(N8CCC(=O)NC8=O)cc7)CC6)C5)CC4)cc3)CC2)CN1c1ccc(C#N)c(Cl)c1` [Example 7, (S)-2-Chloro-4-(8-(4-(4-(3-(4-(4-(2,4-dioxotetrahydropyrimidin-1(2H)-yl)phenyl)piperazin-1-yl)azetidin-1-yl)piperidine-1-carbonyl)phenyl)-3-methyl-2,8-diazaspiro[4.5]decan-2-yl)benzonitrile], the half-maximal degradation concentration (DC50) on androgen receptor (AR) (setting [1]) was determined as 1 nM. Also, on androgen receptor (AR) (0.1 nM R1881, 24 hours), the Dmax is 93%. Also, in the experiment with LNCaP cells, the concentration for half-maximal inhibition (IC50) came out at 4.6 nM and the Emax was 53%.

As to `C[C@H]1CC2(CCN(c3ccc(C(=O)N4CCC(CN5CC(N6CCN(c7ccc(N8CCC(=O)NC8=O)cc7)CC6)C5)CC4)cc3)CC2)CN1c1ccc(C#N)c(Cl)c1` [Example 8, (S)-2-Chloro-4-(8-(4-(4-((3-(4-(4-(2,4-dioxotetrahydropyrimidin-1(2H)-yl)phenyl)piperazin-1-yl)azetidin-1-yl)methyl)piperidine-1-carbonyl)phenyl)-3-methyl-2,8-diazaspiro[4.5]decan-2-yl)benzonitrile], the 50% degradation concentration (DC50) on androgen receptor (AR) (setting [1]) stood at 1.6 nM. The Dmax at androgen receptor (AR) (0.1 nM R1881, 24 hours) came to 85%. In the experiment with LNCaP cells, half-maximal inhibition (IC50) required 9.8 nM and the Emax is 31%.

As to `C[C@H]1CC2(CCN(c3ccc(C(=O)N4CC(CN5CCN(c6cccc(NC7CCC(=O)NC7=O)c6)CC5)C4)nn3)CC2)CN1c1ccc(C#N)c(Cl)c1` (stereo partly drawn) [Example 22, 2-Chloro-4-((3S)-8-(6-(3-((4-(3-((2,6-dioxopiperidin-3-yl)amino)phenyl)piperazin-1-yl)methyl)azetidine-1-carbonyl)pyridazin-3-yl)-3-methyl-2,8-diazaspiro[4.5]decan-2-yl)benzonitrile], the DC50 on androgen receptor (AR) (setting [1]) turned out to be 0.4 nM. Besides, the Dmax at androgen receptor (AR) (0.1 nM R1881, 24 hours) is 97%.

Regarding `C[C@H]1CC2(CCN(c3ccc(C(=O)N4CCC(CN5CCN(c6ccccc6NC6CCC(=O)NC6=O)CC5)CC4)cc3)CC2)CN1c1ccc(C#N)c(Cl)c1` (stereo partly drawn) [Example 39, 2-Chloro-4-((3S)-8-(4-(4-((4-(2-((2,6-dioxopiperidin-3-yl)amino)phenyl)piperazin-1-yl)methyl)piperidine-1-carbonyl)phenyl)-3-methyl-2,8-diazaspiro[4.5]decan-2-yl)benzonitrile], the DC50 at androgen receptor (AR) (setting [1]) is 13.9 nM. Also, the Dmax on androgen receptor (AR) (0.1 nM R1881, 24 hours) was 86%.

For `C[C@H]1CC2(CCN(c3ccc(C(=O)N4CCC(CN5CCN(c6ccc(C(=O)NC7CCC(=O)NC7=O)cc6)CC5)CC4)cc3)CC2)CN1c1ccc(C#N)c(Cl)c1` (stereo partly drawn) [Example 43, 4-(4-((1-(4-((S)-2-(3-Chloro-4-cyanophenyl)-3-methyl-2,8-diazaspiro[4.5]decan-8-yl)benzoyl)piperidin-4-yl)methyl)piperazin-1-yl)-N-(2,6-dioxopiperidin-3-yl)benzamide], on androgen receptor (AR) (setting [1]), the DC50 was 9.3 nM. Moreover, the Dmax on androgen receptor (AR) (0.1 nM R1881, 24 hours) is 92%.
